# How the values were obtained:
# Test in all cases: relative viability (nuclei count vs DMSO), 5 days (fraction); higher = more cells survive
# [1] = compound: C=C(c1ccc(C(=O)O)cc1)c1cc2c(cc1C)C(C)(C)CCC2(C)C [Bexarotene] + COc1cc2c(Oc3ccc(NC(=O)C4(C(=O)Nc5ccc(F)cc5)CC4)cc3F)ccnc2cc1OCCCN1CCOCC1 [Foretinib] (partner 0.25 µM)
# Method in brief: (§1)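 One day after seeding in 1536-well plates, lung cancer cell lines were dosed by pin tool. Dosing was either single-drug or a fixed anchor-drug dose plus five library-drug doses (not always all listed) in √10 steps. After 5 days, nuclei were stained in one fix-and-stain step and counted on 4× images, and relative viability is the nuclei count of treated wells over that of vehicle wells, given as the median of duplicate plates.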
# [2] = compound: C=C(c1ccc(C(=O)O)cc1)c1cc2c(cc1C)C(C)(C)CCC2(C)C [Bexarotene] + CS(=O)(=O)N1CCN(Cc2cc3nc(-c4cccc5[nH]ncc45)nc(N4CCOCC4)c3s2)CC1 [Pictilisib] (partner 1 µM)
# Method in brief: as §1
# [3] = compound: C=C(c1ccc(C(=O)O)cc1)c1cc2c(cc1C)C(C)(C)CCC2(C)C [Bexarotene] + NC(=O)Nc1cc(-c2cccc(F)c2)sc1C(=O)N[C@H]1CCCNC1 [AZD7762] (partner 0.2 µM)
# Method in brief: as §1
# [4] = compound: C=C(c1ccc(C(=O)O)cc1)c1cc2c(cc1C)C(C)(C)CCC2(C)C [Bexarotene] + O=C(CCCCCCC(=O)Nc1ccccc1)NO [Vorinostat] (partner 1 µM)
# Method in brief: as §1
Cell Line,relative viability ([1]; first compound 0.08 µM),relative viability ([1]; first compound 0.253 µM),relative viability ([1]; first compound 0.8 µM),relative viability ([1]; first compound 2.53 µM),relative viability ([1]; first compound 8 µM),relative viability ([2]; first compound 0.08 µM),relative viability ([2]; first compound 0.253 µM),relative viability ([2]; first compound 0.8 µM),relative viability ([2]; first compound 2.53 µM),relative viability ([2]; first compound 8 µM),relative viability ([3]; first compound 0.08 µM),relative viability ([3]; first compound 0.253 µM),relative viability ([3]; first compound 0.8 µM),relative viability ([3]; first compound 2.53 µM),relative viability ([3]; first compound 8 µM),relative viability ([4]; first compound 0.08 µM),relative viability ([4]; first compound 0.253 µM),relative viability ([4]; first compound 0.8 µM),relative viability ([4]; first compound 8 µM),relative viability ([4]; first compound 2.53 µM)
ABC-1,0.991,1.19,1.13,0.855,1.08,0.662,0.63,0.606,0.697,0.615,0.729,0.797,0.747,0.667,0.876,1.07,0.883,0.742,1.03,
HCC-15,1.09,1.07,1.05,1.05,0.996,0.798,0.743,0.656,0.644,0.632,1.23,1.17,1.27,1.1,1.44,0.877,0.892,0.823,0.81,0.889
NCI-H2170,1.03,1.03,0.983,0.922,0.977,0.352,0.307,0.302,0.271,0.268,0.877,0.796,0.812,0.775,0.735,0.746,0.913,0.753,0.687,0.699
PC-3 [JPC-3],1.13,0.949,0.941,0.99,0.891,0.868,0.749,0.519,0.656,0.666,0.958,0.705,0.785,0.651,0.709,0.963,0.639,0.737,0.599,0.417
NCI-H1993,0.807,0.732,0.768,0.725,0.766,0.803,0.846,0.899,0.866,0.836,0.805,0.83,0.618,0.851,0.636,0.851,0.691,0.783,0.672,0.716
NCI-H358,0.8,0.929,0.708,0.818,0.722,0.377,0.364,0.376,0.435,0.351,0.546,0.511,0.505,0.49,0.572,0.7,0.798,0.667,0.703,0.934
NCI-H1915,1.19,1.13,1.1,1.06,1.07,1.19,0.989,0.882,0.996,0.917,0.707,0.724,0.674,0.653,0.655,0.544,0.579,0.482,0.513,0.513
RERF-LC-KJ,0.839,0.823,0.715,0.795,0.777,0.492,0.592,0.503,0.387,0.57,0.97,0.918,0.873,1.03,0.849,0.689,0.707,0.641,0.609,0.7

# From the supplement of paper PMC10307832
